#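 Step 1: Grow cells in 96-well plates. Step 2: Expose to compound for 48 hours at 5 concentrations. Step 3: Interpolate endpoints linearly; if unreached, use highest concentration. GI50 = concentration required for 50% inhibition of growth.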 The source made the active and inactive calls. No stated cut-off is given here; in the data, active = GI50 up to about 1.1 µM and inactive = higher.
# What was measured:
# Test in all cases: growth of human tumour cells (NCI), 48 h
# MDA-MB-435 = system: MDA-MB-435
# KM12 = system: KM12
# SW-620 = system: SW-620
# M14 = system: M14
# NCI/ADR-RES = system: NCI/ADR-RES
# CAKI-1 = system: CAKI-1
# LOX IMVI = system: LOX IMVI
# SF-295 = system: SF-295
# RXF 393 = system: RXF 393
# OVCAR-3 = system: OVCAR-3
# SK-MEL-5 = system: SK-MEL-5
# ACHN = system: ACHN
# NCI-H23 = system: NCI-H23
# HT-29 = system: HT-29
# DU-145 = system: DU-145
# U-251 = system: U-251
# UO-31 = system: UO-31
# IGROV-1 = system: IGROV-1
# Malme-3M = system: Malme-3M
# 786-0 = system: 786-0
# HCT-116 = system: HCT-116
# UACC-257 = system: UACC-257
# PC-3 = system: PC-3
# HCT-15 = system: HCT-15
# UACC-62 = system: UACC-62
# HOP-92 = system: HOP-92
# BT-549 = system: BT-549
# TK-10 = system: TK-10
# MCF7 = system: MCF7
# Hs-578T = system: Hs-578T
# T47D = system: T47D
# NCI-H522 = system: NCI-H522
# SF-539 = system: SF-539
# OVCAR-8 = system: OVCAR-8
# EKVX = system: EKVX
# SK-OV-3 = system: SK-OV-3
# COLO 205 = system: COLO 205
# MDA-MB-231 = system: MDA-MB-231
# K562 = system: K562
# HCC 2998 = system: HCC 2998
# SK-MEL-28 = system: SK-MEL-28
# NCI-H460 = system: NCI-H460
# OVCAR-4 = system: OVCAR-4
# SNB-75 = system: SNB-75
# NCI-H226 = system: NCI-H226
# MOLT-4 = system: MOLT-4
# SF-268 = system: SF-268
# A549 = system: A549
# OVCAR-5 = system: OVCAR-5
# HOP-62 = system: HOP-62
# A498 = system: A498
# SNB-19 = system: SNB-19
# SR = system: SR
# SK-MEL-2 = system: SK-MEL-2
structure (smiles),measurement,setting,value
O=C1N(CN2CCOCC2)CN(CN2CCOCC2)C(=O)N1Cc1ccc(-c2ccc(CN3C(=O)N(CN4CCOCC4)CN(CN4CCOCC4)C3=O)cc2)cc1,GI50,MDA-MB-435,2.63 µM (inactive)
same,GI50,KM12,4.73 µM (inactive)
same,GI50,SW-620,8.38 µM (inactive)
same,GI50,M14,5.53 µM (inactive)
same,GI50,NCI/ADR-RES,17.3 µM (inactive)
same,GI50,CAKI-1,14.2 µM (inactive)
same,GI50,LOX IMVI,10 µM (inactive)
same,GI50,SF-295,23.2 µM (inactive)
same,GI50,RXF 393,10.8 µM (inactive)
same,GI50,OVCAR-3,7.78 µM (inactive)
same,GI50,SK-MEL-5,> 19.7 µM (inactive)
same,GI50,ACHN,27.4 µM (inactive)
same,GI50,NCI-H23,10.6 µM (inactive)
same,GI50,HT-29,19.6 µM (inactive)
same,GI50,DU-145,16.8 µM (inactive)
same,GI50,U-251,16.1 µM (inactive)
same,GI50,UO-31,19.4 µM (inactive)
same,GI50,IGROV-1,11.6 µM (inactive)
same,GI50,Malme-3M,13.2 µM (inactive)
same,GI50,786-0,9.16 µM (inactive)
same,GI50,HCT-116,7.6 µM (inactive)
same,GI50,UACC-257,13.8 µM (inactive)
same,GI50,PC-3,20.8 µM (inactive)
same,GI50,HCT-15,9.55 µM
same,GI50,UACC-62,9.75 µM (inactive)
same,GI50,HOP-92,9.46 µM (inactive)
same,GI50,BT-549,5.87 µM (inactive)
same,GI50,TK-10,16.5 µM (inactive)
same,GI50,MCF7,4 µM (inactive)
same,GI50,Hs-578T,26.2 µM (inactive)
same,GI50,T47D,24 µM (inactive)
same,GI50,NCI-H522,12.2 µM (inactive)
same,GI50,SF-539,> 27.8 µM (inactive)
same,GI50,OVCAR-8,20.5 µM (inactive)
same,GI50,EKVX,21.7 µM (inactive)
same,GI50,SK-OV-3,32.9 µM (inactive)
same,GI50,COLO 205,> 21 µM (inactive)
same,GI50,MDA-MB-231,26.5 µM (inactive)
same,GI50,K562,3.75 µM (inactive)
same,GI50,HCC 2998,11 µM (inactive)
same,GI50,SK-MEL-28,12.9 µM (inactive)
same,GI50,NCI-H460,15.9 µM (inactive)
same,GI50,OVCAR-4,14 µM (inactive)
same,GI50,SNB-75,9.55 µM (inactive)
same,GI50,NCI-H226,> 46.2 µM (inactive)
same,GI50,MOLT-4,4.19 µM (inactive)
same,GI50,SF-268,14.2 µM (inactive)
same,GI50,A549,20.8 µM (inactive)
same,GI50,OVCAR-5,20.2 µM (inactive)
same,GI50,HOP-62,21.6 µM (inactive)
same,GI50,A498,15.3 µM (inactive)
same,GI50,SNB-19,10.3 µM (inactive)
same,GI50,SR,2.08 µM (inactive)
same,GI50,SK-MEL-2,6.55 µM (inactive)

# From ChEMBL document CHEMBL1201862, “PubChem BioAssay data set” (2004)
